Measurements reported in PMC11472310, “Distinctive Immune Signatures Driven by Structural Alterations in Desmuramylpeptide NOD2 Agonists” (Journal of Medicinal Chemistry, 2024).

What was measured:
Format in all cases: cell-based
[1] = system: human PBMCs; test: Cytokine release from peripheral blood mononuclear cells (LEGENDplex panel); conditions: 18 h
[2] = system: K562 cancer cells; test: PBMC cytotoxicity against K562 cancer cells (flow cytometry); conditions: for cytotoxicity of PBMCs against K562 cells, cotreatment with LPS (relative to negative control) / Cytotoxicity (ratio to control), + LPS: 10 μM + LPS 1 μg/mL; for cytotoxicity of PBMCs against K562 cells, cotreatment with LPS (relative to negative control) / enhancement of cytotoxicity of PBMCs against K562 cells (relative to negative control): 18 h, then 4 h coincubation; for cytotoxicity of PBMCs against K562 cells, cotreatment with LPS (relative to negative control): 40:1; for Cytotoxicity (ratio to control), + LPS / Cytotoxicity (ratio to control): Table S2; for Cytotoxicity (ratio to control) / enhancement of cytotoxicity of PBMCs against K562 cells (relative to negative control): alone: compounds 10 μM, LPS 1 μg/mL, IL-2 200 U/mL; for enhancement of cytotoxicity of PBMCs against K562 cells (relative to negative control): effector:target 40:1
[3] = system: human blood monocyte subsets; test: Monocyte conversion assay in PBMCs (CD14/CD16 flow cytometry); conditions: 10 μM, 18 h, NT 19.5%
Description: Engagement of NOD2 has been reported to increase the levels of an anti-inflammatory monocyte subset, denoted as patrolling monocytes (CD14^–, CD16^+2), thus exerting a counterintuitive role in inflammatory processes, while concomitantly increasing the levels of total blood monocytes (released from bone marrow).[18] […] This process involves a transition from the inflammatory monocytes, typified by CD14^+CD16^–, through an intermediate subset of CD14^+CD16^+ monocytes. […] To recapitulate this phenomenon, we modified the reported procedure and employed PBMCs in lieu of isolated monocytes. Identification of human blood monocyte subsets was achieved through flow cytometry, utilizing the expression of CD14 and CD16 markers as distinguishing criteria. […] Similar to what has been reported (e.g., inactivity of murabutide),[18] also in our case not all NOD2 agonists were equally endowed with the ability to generate patrolling monocytes.
The monocyte conversion assay was conducted following previously established methods, with some adjustments.[18] Peripheral blood mononuclear cells were plated at a density of 3 × 10^6 cells/mL in 24-well plates containing 700 μL of growth medium. Cells were then treated with MDP and desmuramylpeptides (10 μM) or the corresponding vehicle (0.1% DMSO). Following an incubation period at 37 °C with 5% CO2, cells were transferred to 1.5 mL tube using phosphate-buffered saline (PBS) and scraper. The cells were blocked with human TruStain Fcx (BioLegend) and stained using antihuman CD16 antibodies/Alexa Fluor 488 (BioLegend); antihuman CD14 antibodies/PE-Cy7 (BioLegend); antihuman HLA-DR antibodies/APC-Fire750 (BioLegend) and blocked with TrueStain Monocyte Blocker. A viability dye Helix NP Blue (BioLegend) was added to the previous panel to discriminate live cells. PBMC were analyzed using an Attune NxT flow cytometer (Thermo Fisher Scientific, Waltham, MA, USA) and the FlowJo software (Tree Star, Inc., Ashland, OR, USA). Initially, lymphocytes (CD14^–, CD16^–) and NK (CD16^–, HLA-DR^–) were eliminated, after which classical, intermediate and nonclassical monocytes were specifically identified by selective gating strategy as follows: CD14^+ CD16^– (classical), CD14^+ CD16^+ (intermediate) and CD14^– CD16^+ (nonclassical). Each experiment was conducted in duplicate and repeated in three independent biological replicates.

SMILES	levels of LPS-induced IL-10 ([1]; 2 μM + LPS 10 ng/mL)	production of MCP-1 and IFN-γ compared to the MDP/LPS combination ([1]; 2 μM + LPS 10 ng/mL)	secretion of IL-1β, IL-10 and TGFβ compared to the MDP/LPS combination ([1]; 2 μM + LPS 10 ng/mL)	cytotoxicity of PBMCs against K562 cells, cotreatment with LPS (relative to negative control) [2]	Cytotoxicity (ratio to control), + LPS [2]	Cytotoxicity (ratio to control) [2]	enhancement of cytotoxicity of PBMCs against K562 cells (relative to negative control) [2]	levels of nonclassical monocytes [3]	production of IL-12p70 and TNF-α compared to MDP ([1]; 2 μM + LPS 10 ng/mL)	capacity to induce IP-10 and IFN-γ secretion ([1]; 2 μM + LPS 10 ng/mL, versus MDP)	production of proinflammatory cytokines and chemokines including IL-6, IL-8 and MCP-1 ([1]; 2 μM alone (no LPS))
CCCC(=O)Oc1ccc(/C=C/C(=O)NCC(=O)N[C@H](C(=O)N[C@H](CCC(=O)OCC)C(=O)OCC)C(C)C)cc1OC [Compound 3, Diethyl ((E)-3-(4-(Butyryloxy)-3-methoxyphenyl)acryloyl)glycyl-L-valyl-D-glutamate]	amplified	significantly diminished production	increased secretion	0.98 fold	0.98 ± 0.18	1.04 ± 0.06	no activity	31.9%			
CC/C=C\C/C=C\C/C=C\C/C=C\C/C=C\CCCC(=O)Oc1ccc(/C=C/C(=O)NCC(=O)N[C@H](C(=O)N[C@H](CCC(=O)OCC)C(=O)OCC)C(C)C)cc1OC [Compound 23, Diethyl ((E)-3-(4-(((5Z,8Z,11Z,14Z,17Z)-Icosa-5,8,11,14,17-pentaenoyl)oxy)-3-methoxyphenyl)acryloyl)glycyl-L-valyl-D-glutamate]	amplified	significantly diminished production	increased secretion	1.30 fold	1.30 ± 0.26	1.02 ± 0.08	no activity	31.0%			
CCOC(=O)CC[C@@H](NC(=O)[C@@H](NC(=O)CNC(=O)/C=C/c1ccc(OC(=O)CO[C@H]2CC[C@@]3(C)C(=CC[C@H]4[C@@H]5CC[C@H]([C@H](C)CCCC(C)C)[C@@]5(C)CC[C@@H]43)C2)c(OC)c1)C(C)C)C(=O)OCC [Compound 26, Diethyl ((E)-3-(4-(2-(((8S,9S,10R,13R,14S,17R)-10,13-Dimethyl-17-((R)-6-methylheptan-2-yl)-2,3,4,7,8,9,10,11,12,13,14,15,16,17-tetradecahydro-1H-cyclopenta[a]phenanthren-3-yl)oxy)acetoxy)-3-methoxyphenyl)acryloyl)glycyl-L-valyl-D-glutamate]	amplified			2.39 fold	2.39 ± 0.27	1.34 ± 0.05	1.34 fold	44.8%	higher production	comparable to MDP	smaller increases
